Results: patent publication US7202228B2, “Hydrogelation agents” (Japan Science and Technology Agency, priority 2001, dated 2007)

Legend:
[1] = Hydrogel formation in water (dissolve at 60° C. or more, leave at room temperature); type: physicochemical; details: left at room temperature
Experimental: Next, the method of manufacturing a hydrogel will be described. The gelatinizer of the invention is dissolved in an aqueous solution. A weakly acidic (pH 4) or weakly alkaline (pH 10) aqueous solution is preferred from the viewpoint of solubility. If the pH of the aqueous solution is less than 4, all of the phosphoric acid part is protonated, and it is difficult to dissolve in water. If the pH is higher than 10, the phosphoric acid part dissociates, and remains dissociated so that the water is not solidified. After dissolving the compound in the aqueous solution with heating, it is gradually cooled to room temperature and allowed to stand. In the dissolution process, heat alone is sufficient if the compound can be completely dissolved. If necessary, the compound can be efficiently converted to a simple dispersion in an aqueous solvent by ultrasound. The heating time is of the order of 30 minutes to 2 hours, but to ensure that dissolution of the compound is complete, it is preferably one hour or more. When the aqueous solution in which the compound has been dissolved is gradually cooled in air, and left at room temperature, the aqueous solution solidifies within one day-several days, and forms a hydrogel. […] The fluidity of the resulting gel may be varied by adjusting the pH of the water and the concentration of the gelatinizer during manufacture. In general, the formation of the hydrogel may be observed with the naked eye, but if the microstructure of the gel is observed using an optical microscope or scanning electron microscope, it can be seen that extremely fine fibers of the order of nanometers are entangled together to form a lattice structure.

[2] = Gelatinizing ability in aqueous solutions of varying pH (gel formation observed); type: physicochemical; design: key to formation of a gel, pH 168 / formation of a gel, pH 401 / formation of a gel, pH 755 / formation of a gel, pH 918 / formation of a gel, milliQ water: the formation of gel is indicated by “G”; partial formation of gel is indicated by “LG”; unchanged aqueous solution is indicated by “S”; the formation of a precipitate is indicated by “P”; insolubility is indicated by “I”; details: for formation of a gel, pH 401: 10 mg compound in 0.5 ml buffer solution pH 401; for formation of a gel, pH 401 / formation of a gel, pH 755 / formation of a gel, pH 918 / formation of a gel, pH 168 / formation of a gel, milliQ water: 60° C. or more, ultrasound one hour, then room temperature; for formation of a gel, pH 755: 10 mg compound in 0.5 ml buffer solution pH 755; for formation of a gel, pH 918: 10 mg compound in 0.5 ml buffer solution pH 918; for formation of a gel, pH 168: 10 mg compound in 0.5 ml buffer solution; for formation of a gel, milliQ water: 10 mg compound in 0.5 ml milliQ water (distilled water); for solidification of milliQ water (distilled water) or water of pH 4–9: concentration of hydrogelatinizer 2wt %
Experimental: The gelatinizing ability was examined for aqueous solutions, of varying pH, of Compounds 1–7 synthesized in Manufacturing Examples 1–7. 10 mg of these compounds was placed in a sample bottle together with 0.5 ml of buffer solution adjusted to various pH, and while maintaining the temperature at 60° C. or more, the mixture was irradiated with ultrasound for one hour. After leaving the resulting aqueous solution at room temperature, the formation of a gel was observed.
In the table, the formation of gel is indicated by “G”, partial formation of gel is indicated by “LG”, unchanged aqueous solution is indicated by “S”, the formation of a precipitate is indicated by “P”, and insolubility is indicated by “I”.

[3] = 100 mg in 0.5 ml of water, dissolved at 60° C. or more

Row | SMILES | hydrogel formation ([1]; 1 mg in 0.5 ml of water, 60° C. or more, ultrasound one hour) | formation of a gel, pH 401 [2] | formation of a gel, pH 755 [2] | formation of a gel, pH 918 [2] | formation of a gel, pH 168 [2] | formation of a gel, milliQ water [2] | solidification of milliQ water (distilled water) or water of pH 4–9 [2] | hydrogel formation [1, 3]
1 | Cc1cn([C@H]2C[C@H](OP(=O)(O)OCCCCCCCCCCCCCCCCCCCCOP(=O)(O)O[C@H]3C[C@H](n4cc(C)c(=O)[nH]c4=O)O[C@@H]3CO)[C@@H](CO)O2)c(=O)[nH]c1=O [Compound 7, 1,20-(icosanedioxy)bis-(3′-phosphatidyl-2′-deoxythymidine)] | solidified after several days | LG | G | G | I | G | efficiently solidified | –
2 | Cc1cn([C@H]2C[C@H](OP(=O)(O)OCCCCCCCCCCCCCCCCCCOP(=O)(O)O[C@H]3C[C@H](n4cc(C)c(=O)[nH]c4=O)O[C@@H]3CO)[C@@H](CO)O2)c(=O)[nH]c1=O [Compound 6, 1,18-(octadecanedioxy)bis-(3′-phosphatidyl-2′-deoxythymidine)] | – | P | P | S | I | G | efficiently solidified | –
3 | Cc1cn([C@H]2C[C@H](OP(=O)(O)OCCCCCCCCCCCCCCCCOP(=O)(O)O[C@H]3C[C@H](n4cc(C)c(=O)[nH]c4=O)O[C@@H]3CO)[C@@H](CO)O2)c(=O)[nH]c1=O [Compound 5, 1,16-(hexadecanedioxy)-bis(3′-phosphatidyl-2′-deoxythymidine)] | – | S | S | S | I | P | – | –
4 | Cc1cn(C2CC(OP(=O)(O)OCCCCCCCCCCCCCCOP(=O)(O)OC3CC(n4cc(C)c(=O)[nH]c4=O)OC3CO)C(CO)O2)c(=O)[nH]c1=O (stereo not shown) [Compound 3, 1,14-(tetradecanedioxy)bis-(3′-phosphatidyl-2′-deoxythymidine)] | – | S | S | S | I | S | – | –

Results, then the compound that gave them:

Row | hydrogel formation ([1]; 1 mg in 0.5 ml of water, 60° C. or more, ultrasound one hour) | formation of a gel, pH 401 [2] | formation of a gel, pH 755 [2] | formation of a gel, pH 918 [2] | formation of a gel, pH 168 [2] | formation of a gel, milliQ water [2] | solidification of milliQ water (distilled water) or water of pH 4–9 [2] | hydrogel formation [1, 3] | SMILES
5 | – | S | S | S | I | S | – | solidified after several days | Cc1cn([C@H]2C[C@H](OP(=O)(O)OCCCCCCCCCCCCOP(=O)(O)O[C@H]3C[C@H](n4cc(C)c(=O)[nH]c4=O)O[C@@H]3CO)[C@@H](CO)O2)c(=O)[nH]c1=O [Compound 1, 1,12-(dodecanedioxy)bis(3′-phosphatidyl-2′-deoxythymidine)]
6 | – | S | S | S | I | S | – | a hydrogel was obtained | Cc1cn([C@H]2C[C@H](OP(=O)(O)OCCCCCCCCCCCCCOP(=O)(O)O[C@H]3C[C@H](n4cc(C)c(=O)[nH]c4=O)O[C@@H]3CO)[C@@H](CO)O2)c(=O)[nH]c1=O [Compound 2, 1,13-(tridecanedioxy)bis-(3′-phosphatidyl-2′-deoxythymidine)]
7 | – | S | S | S | I | P | – | – | Cc1cn(C2CC(OP(=O)(O)OCCCCCCCCCCCCCCCOP(=O)(O)OC3CC(n4cc(C)c(=O)[nH]c4=O)OC3CO)C(CO)O2)c(=O)[nH]c1=O (stereo not shown) [Compound 4, 1,15-(pentadecanedioxy)-bis(3′-phosphatidyl-2′-deoxythymidine)]
